Results on 26 compounds are retold here after patent publication US20240174696A1, “2,8-DIAZASPIRO[4.5]DECANE COMPOUNDS” (Genentech, Inc., priority 2021, published 2024).

The term pKi denotes the Ki on a negative log10 scale, so that one unit is a factor of ten. A higher pKi goes with a small Ki.

pKi: −log10 of the molar value. Where a name gives a salt, the structure may show the parent alone.

The assay addresses Human LATS2 catalytic domain (Homo sapiens (Human), UniProt Q9NRM7). The assay is described as follows: LATS2 High ATP HTRF Assay. Format: biochemical. The note with it: no asterisk: LATS2 High ATP HTRF Assay, 5000 μM ATP, 0.05 nM LATS2. Here is the method:
Human LATS2 catalytic domain which contains the amino acids G553-V1088 (accession NP_055387) was purified in-house. The LATS2 catalytic domain was co-purified with Mob1b (accession NP_775739). The LATS2 biochemical HTRF assay was performed using the HTRF KinEASE-STK S1 Kit (Cisbio, Cat #62ST1PEC), following the protocol from the manufacturer. Compounds were dispensed by the Echo Liquid Handler (Labcyte) into a white 384-well plate (PerkinElmer, Cat #6008289). 3 uL of 2×LATS2 enzyme solution was added to the compounds, following by a 10 minute incubation at room temperature. Then, 2×ATP and STK S1 peptide solution was added to initiate the one hour enzyme reaction at room temperature. The final condition of the reaction was 0.2 nM LATS2, 50 μM ATP, 0.5 μM STK S1 peptide in 50 mM HEPES pH7.2, 10 mM MgCl2, 0.1% BGG, 0.005% Brij-35, 1 mM DTT. The reaction was quenched by adding 6 uL of the detection mixture which contained Streptavidin XL665 and STK Antibody-Cryptate (Cisbio), incubate for 1 hour at room temperature. The HTRF (665 nm/620 nm) signal was read on the Envision plater reader (PerkinElmer). The IC50 values were determined by fitting the % inhibition with a nonlinear four-parameter logistical equation. The Ki values were calculated using the Cheng-Prusoff equation for a competitive inhibitor, IC50═Ki (1+S/Km)+M [E] with ATP Km for LATS2=105 μM.
The LATS2 high ATP HTRF assay was performed using the same protocol as the Standard LATS2 HTRF assay. The final condition of the reaction was 0.05 nM LATS2, 5000 μM ATP, 0.5 μM STK S1 peptide in 50 mM HEPES pH7.2, 10 mM MgCl2, 0.1% BGG, 0.005% Brij-35, 1 mM DTT and the 2 hours enzyme reaction at room temperature.
In general terms: Time-resolved FRET reads energy transfer from a long-lived donor to a nearby acceptor.

Chain of Human LATS2 catalytic domain (Q9NRM7 553-1088): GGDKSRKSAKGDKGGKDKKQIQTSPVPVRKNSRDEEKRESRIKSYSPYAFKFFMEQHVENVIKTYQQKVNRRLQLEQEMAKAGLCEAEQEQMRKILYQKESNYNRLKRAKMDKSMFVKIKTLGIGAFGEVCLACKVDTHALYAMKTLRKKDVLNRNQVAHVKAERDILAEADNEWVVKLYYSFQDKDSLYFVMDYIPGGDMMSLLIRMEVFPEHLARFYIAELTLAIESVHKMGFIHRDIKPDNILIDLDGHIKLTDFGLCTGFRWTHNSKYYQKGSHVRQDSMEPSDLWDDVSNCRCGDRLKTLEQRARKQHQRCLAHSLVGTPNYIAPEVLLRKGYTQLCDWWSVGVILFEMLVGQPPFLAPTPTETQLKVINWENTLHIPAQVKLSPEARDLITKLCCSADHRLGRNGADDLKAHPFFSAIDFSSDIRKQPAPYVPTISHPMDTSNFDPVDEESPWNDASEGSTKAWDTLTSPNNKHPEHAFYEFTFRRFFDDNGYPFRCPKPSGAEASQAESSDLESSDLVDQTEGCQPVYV
Chain of Human LATS2 catalytic domain (Q7L9L4 whole entry partner, the tested form may be a part): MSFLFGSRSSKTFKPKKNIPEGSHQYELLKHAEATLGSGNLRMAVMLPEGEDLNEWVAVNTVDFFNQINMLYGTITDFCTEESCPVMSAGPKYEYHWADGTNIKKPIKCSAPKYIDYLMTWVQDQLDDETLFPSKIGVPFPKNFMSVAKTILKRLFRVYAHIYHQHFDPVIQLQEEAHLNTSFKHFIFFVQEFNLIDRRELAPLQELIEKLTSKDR

On to `O[C@H]1CC[C@@H]1N1CCC2(CCN(c3nc(-c4ccncc4)nc4cnccc34)CC2)C1` (single isomer, unassigned) [Compound 178], for which the pKi was 9.01.

Take `CC(=O)N1CCC2(CCN(c3nc(-c4ccncc4)nc4cnccc34)CC2)C1` [Compound 125, 1-(8-(2-(pyridin-4-yl)pyrido[3,4-d]pyrimidin-4-yl)-2,8-diazaspiro[4.5]decan-2-yl)ethan-1-one]: the pKi was 7.78. `c1cc(-c2nc(N3CCC4(CCN(c5cc[nH]n5)C4)CC3)c3ccncc3n2)ccn1` [Compound 139, 4-(2-(1H-pyrazol-3-yl)-2,8-diazaspiro[4.5]decan-8-yl)-2-(pyridin-4-yl)pyrido[3,4-d]pyrimidine] gave a pKi of 7.72. The result for `c1ccc(N2CCC3(CCN(c4nc(-c5ccncc5)nc5cnccc45)CC3)C2)cc1` [Compound 140, 4-(2-phenyl-2,8-diazaspiro[4.5]decan-8-yl)-2-(pyridin-4-yl)pyrido[3,4-d]pyrimidine] reads 7.05; that for `N#Cc1[nH]ncc1-c1nc(N2CCC3(CCNC3)CC2)c2ccncc2n1` [Compound 155, 4-(4-(2,8-diazaspiro[4.5]decan-8-yl)pyrido[3,4-d]pyrimidin-2-yl)-1H-pyrazole-5-carbonitrile], 7.29; that for `CCC(=O)NCc1cc2c(N3CCC4(CCNC4)CC3)nc(-c3ccncc3)nc2cn1` [Compound 159, N-((2-(pyridin-4-yl)-4-(2,8-diazaspiro[4.5]decan-8-yl)pyrido[3,4-d]pyrimidin-6-yl)methyl)propionamide], 8.18. `CN(C)C(=O)C1CC2(CCN(c3nc(-c4ccncc4)nc4cnccc34)CC2)CN1` (centres unmarked) [Compound 173, N,N-dimethyl-8-(2-(pyridin-4-yl)pyrido[3,4-d]pyrimidin-4-yl)-2,8-diazaspiro[4.5]decane-3-carboxamide] gave a pKi of 8.13. In the case of `O=C(C1CC2(CCN(c3nc(-c4ccncc4)nc4cnccc34)CC2)CN1)N1CCCC1` (centres unmarked) [Compound 174, (8-(2-(pyridin-4-yl)pyrido[3,4-d]pyrimidin-4-yl)-2,8-diazaspiro[4.5]decan-3-yl)(pyrrolidin-1-yl)methanone], the negative-log Ki (pKi) is 7.95. The compound `O=C(C1CC2(CCN(c3nc(-c4ccncc4)nc4cnccc34)CC2)CN1)N1CCOCC1` (centres unmarked) [Compound 175, morpholino(8-(2-(pyridin-4-yl)pyrido[3,4-d]pyrimidin-4-yl)-2,8-diazaspiro[4.5]decan-3-yl)methanone] gave a negative-log Ki (pKi) of 7.65. `N#Cc1cnccc1-c1nc(N2CCC3(CCNC3)CC2)c2ccncc2n1` [Compound 183, 4-(4-(2,8-diazaspiro[4.5]decan-8-yl)pyrido[3,4-d]pyrimidin-2-yl)nicotinonitrile]: the pKi is 7.76. The result for `Fc1[nH]ncc1-c1nc(N2CCC3(CCNC3)CC2)c2ccncc2n1` [Compound 188, 2-(5-fluoro-1H-pyrazol-4-yl)-4-(2,8-diazaspiro[4.5]decan-8-yl)pyrido[3,4-d]pyrimidine] reads 8.22; that for `c1cc(-c2nc(N3CCC4(CCNC4)CC3)c3c(C4CC4)cncc3n2)ccn1` [Compound 191, 5-cyclopropyl-2-(pyridin-4-yl)-4-(2,8-diazaspiro[4.5]decan-8-yl)pyrido[3,4-d]pyrimidine], 10.55; that for `FC(F)(F)Cc1nccc2c(N3CCC4(CCNC4)CC3)nc(-c3ccncc3)nc12` [Compound 192, 2-(pyridin-4-yl)-4-(2,8-diazaspiro[4.5]decan-8-yl)-8-(2,2,2-trifluoroethyl)pyrido[3,4-d]pyrimidine], 8.86. Compound `FC(F)(F)Cc1cc2c(N3CCC4(CCNC4)CC3)nc(-c3ccncc3)nc2cn1` [Compound 193, 2-(pyridin-4-yl)-4-(2,8-diazaspiro[4.5]decan-8-yl)-6-(2,2,2-trifluoroethyl)pyrido[3,4-d]pyrimidine] gave a pKi of 10.39. The result for `Cc1n[nH]cc1-c1nc(N2CCC3(CCN(C)C3)CC2)c2cc(CC(F)(F)F)ncc2n1` [Compound 194, 2-(3-methyl-1H-pyrazol-4-yl)-4-(2-methyl-2,8-diazaspiro[4.5]decan-8-yl)-6-(2,2,2-trifluoroethyl)pyrido[3,4-d]pyrimidine] reads 9.92; that for `CN1CCC2(CCN(c3nc(-c4ccncc4)nc4cnc(CC(F)(F)F)cc34)CC2)C1` [Compound 195, 4-(2-methyl-2,8-diazaspiro[4.5]decan-8-yl)-2-(pyridin-4-yl)-6-(2,2,2-trifluoroethyl)pyrido[3,4-d]pyrimidine], 10.41; that for `Cc1cnsc1-c1nc(N2CCC3(CCNC3)CC2)c2ccncc2n1` [Compound 244, 5-(4-(2,8-diazaspiro[4.5]decan-8-yl)pyrido[3,4-d]pyrimidin-2-yl)-4-methylisothiazole], 7.89. The result for `CC(=O)N1CC(Oc2cncc3nc(-c4ccncc4)nc(N4CCC5(CCN(C)C5)CC4)c23)C1` [Compound 278, 1-(3-((4-(2-Methyl-2,8-diazaspiro[4.5]decan-8-yl)-2-(pyridin-4-yl)pyrido[3,4-d]pyrimidin-5-yl)oxy)azetidin-1-yl)ethan-1-one] reads 7.96; that for `COc1cncc2nc(-c3cn[nH]c3C)nc(N3CCC4(CCN(CC(F)F)C4)CC3)c12` [Compound 281, 4-(2-(2,2-difluoroethyl)-2,8-diazaspiro[4.5]decan-8-yl)-5-methoxy-2-(5-methyl-1H-pyrazol-4-yl)pyrido[3,4-d]pyrimidine], 10.82; that for `COc1cncc2nc(-c3ccncc3)nc(N3CCC4(CCN(CC5(F)COC5)C4)CC3)c12` [Compound 282, 4-[2-[(3-Fluorooxetan-3-yl)methyl]-2,8-diazaspiro[4.5]decan-8-yl]-5-methoxy-2-(4-pyridyl)pyrido[3,4-d]pyrimidine], 10.41. For `COc1cncc2nc(-c3ccncc3)nc(N3CCC4(CCN(CC(C)(O)C(F)(F)F)C4)CC3)c12` (centres unmarked) [Compound 283, 1,1,1-Trifluoro-3-[8-[5-methoxy-2-(4-pyridyl)pyrido[3,4-d]pyrimidin-4-yl]-2,8-diazaspiro[4.5]decan-2-yl]-2-methyl-propan-2-ol], the pKi was 10.02. The same measure for `CN1CCC2(CCN(c3nc(-c4ccncc4)nc4c(C#N)nccc34)CC2)C1` [Compound 284, 4-(2-Methyl-2,8-diazaspiro[4.5]decan-8-yl)-2-(pyridin-4-yl)pyrido[3,4-d]pyrimidine-8-carbonitrile]: 8.39; for `c1cc(-c2cc(N3CCC4(CCNC4)CC3)c3ccncc3n2)ccn1` [Example 200, 2-(Pyridin-4-yl)-4-(2,8-diazaspiro[4.5]decan-8-yl)-1,7-naphthyridine]: 7.84; for `c1cc(-c2cc(N3CCC4(CCNC4)CC3)c3ccncc3n2)ncn1` [Example 201, 2-(pyrimidin-4-yl)-4-(2,8-diazaspiro[4.5]decan-8-yl)-1,7-naphthyridine trifluoroacetate]: 7.95. On to `COc1nccc2c(N3CCC4(CCN(C)C4)CC3)nc(-c3ccncc3)nc12` [Example 203, 8-methoxy-4-(2-methyl-2,8-diazaspiro[4.5]decan-8-yl)-2-(pyridin-4-yl)pyrido[3,4-d]pyrimidine], for which the pKi is 7.10. The result for `[O-][n+]1ccc2c(N3CCC4(CCNC4)CC3)nc(-c3ccncc3)nc2c1` [Example 207, 2-(pyridin-4-yl)-4-(2,8-diazaspiro[4.5]decan-8-yl)pyrido[3,4-d]pyrimidine 7-oxide] reads 7.64.
